Measured values as given in publication PMC8533211, “Computationally Assisted Lead Optimization of Novel Potent and Selective MAO-B Inhibitors” (Biomedicines, 2021).
“Also recorded” adds a separate entry of the source. Read-outs that look alike come from different tables or passages of the source.

Tests used:
human recombinant MAO-A = molecular target: T1, human recombinant MAO-A (Homo sapiens, UniProt P21397); assay: kynuramine oxidation deamination assay, MAO-A inhibition (IC50); assay type: biochemical; settings: kynuramine 80 μM, mean ± S.D. of triplicate
T1 construct: purchased BD Biosciences (Bedford, MA, USA)
T1 sequence (P21397 1-527): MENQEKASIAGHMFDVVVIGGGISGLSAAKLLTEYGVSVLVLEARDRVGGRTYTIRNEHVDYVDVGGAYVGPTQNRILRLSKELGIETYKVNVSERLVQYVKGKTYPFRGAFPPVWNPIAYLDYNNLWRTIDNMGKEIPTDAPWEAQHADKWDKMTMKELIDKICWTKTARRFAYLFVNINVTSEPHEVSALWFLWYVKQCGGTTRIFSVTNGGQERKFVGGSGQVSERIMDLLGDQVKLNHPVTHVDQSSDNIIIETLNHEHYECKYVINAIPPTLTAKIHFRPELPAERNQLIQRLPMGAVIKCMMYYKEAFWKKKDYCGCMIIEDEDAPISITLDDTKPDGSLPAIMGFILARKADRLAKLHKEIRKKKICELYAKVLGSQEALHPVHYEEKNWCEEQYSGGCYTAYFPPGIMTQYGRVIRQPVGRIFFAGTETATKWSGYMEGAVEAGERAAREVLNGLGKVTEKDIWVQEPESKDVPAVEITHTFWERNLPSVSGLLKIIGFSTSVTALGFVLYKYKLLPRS
Procedure: (§1) A fixed single concentration of kynuramine substrate and varying concentrations of the test inhibitor were used to determine the IC50 values. The kynuramine concentrations for MAO-A and -B were 80 μM and 50 μM, respectively. These concentrations of kynuramine were twice the apparent KM value for substrate binding. […] Enzymatic reactions were performed in 50 μL of the assay mixture containing 0.1 M potassium phosphate buffer, pH 7.4. […] Reactions were initiated by the addition of 12.50 μL of MAO-A (to 5 μg/mL) or -B (to 10 μg/mL). The plate was incubated for 20 min at 37 °C, and the enzymatic reaction was terminated by the addition of 18.8 μL of 2N NaOH. Formation of the enzyme product, 4-hydroxyquinoline, was measured fluorometrically using a SpectraMax M5 fluorescence plate reader (Molecular Devices, Sunnyvale, CA, USA) with excitation (320 nm) and emission (380 nm) wavelengths and the Soft Max Pro program. The inhibition effects of enzyme activity were calculated as percent of product formation compared to the corresponding control (enzyme–substrate reaction) without inhibitors. Controls included the assays where the enzyme or the substrate was added after terminating the reaction to determine the interference with the fluorescence measurements. The IC50 values for MAO-A and -B inhibition were calculated from the concentration-dependent inhibition curves using XLFit® software.

Monoamine Oxidase A = molecular target: T2, Monoamine Oxidase A (Homo sapiens, UniProt P21397); assay: MAO-A inhibition kinetics (Ki, type of inhibition); assay type: biochemical
T2 sequence (P21397 1-527): T1 sequence (P21397 1-527)
Procedure: (§2) The controls without inhibitor were also run simultaneously. Three sets of assays were performed at varying concentrations of the substrate for each experiment: one control without inhibitor and the others at two fixed concentrations of the inhibitor. The data were analyzed by double reciprocal Lineweaver–Burk plots to determine Ki (i.e., inhibition/binding affinity) values and the kinetic data, namely Km, Vmax, and Ki values, were computed by SigmaPlot 12 [9].

human recombinant MAO A = settings: cited from earlier work
human recombinant MAO B = settings: cited from earlier work
human recombinant MAO-B [1] = molecular target: T3, human recombinant MAO-B (Homo sapiens, UniProt P27338); assay: MAO-B inhibition kinetics, Lineweaver–Burk (Ki, type of inhibition); assay type: biochemical; parameters: purchased BD Biosciences (Bedford, MA, USA); settings: for Ki: kynuramine 1.90–500 μM, mean ± S.D. of triplicate experiments, read-out: Monoamine Oxidase B Ki
T3 sequence (P27338 1-520): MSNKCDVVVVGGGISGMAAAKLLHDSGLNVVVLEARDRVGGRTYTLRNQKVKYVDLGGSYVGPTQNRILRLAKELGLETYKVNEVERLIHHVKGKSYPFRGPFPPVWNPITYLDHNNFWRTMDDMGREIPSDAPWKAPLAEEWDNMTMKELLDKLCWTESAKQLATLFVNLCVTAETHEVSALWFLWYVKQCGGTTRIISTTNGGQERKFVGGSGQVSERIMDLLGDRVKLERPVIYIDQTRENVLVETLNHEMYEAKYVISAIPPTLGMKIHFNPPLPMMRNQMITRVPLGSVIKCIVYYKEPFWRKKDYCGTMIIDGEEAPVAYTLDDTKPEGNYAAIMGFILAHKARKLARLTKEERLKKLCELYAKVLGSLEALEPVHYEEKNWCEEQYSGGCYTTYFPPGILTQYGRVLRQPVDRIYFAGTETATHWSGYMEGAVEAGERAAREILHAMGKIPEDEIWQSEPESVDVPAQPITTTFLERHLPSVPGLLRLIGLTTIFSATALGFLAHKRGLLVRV
Procedure: as §2
Modified flavonoids (1–4) c were evaluated against MAO-B at varying concentrations of kynuramine, a nonselective substrate, to investigate the nature of inhibition of the enzymes. Based on dose–concentration inhibition, three to five concentrations (below and above the concentration of IC50 values) were selected for the inhibition kinetics experiment.

human recombinant MAO-B [2] = molecular target: T3, human recombinant MAO-B; assay: time-dependent inhibition of MAO-B; settings: read-out: MAO-B enzyme inhibition in time-dependent assay
Procedure: The controls, without inhibitors, were also run simultaneously. Activities of the enzyme were determined as described above, and the percentage of the remaining enzyme activity was plotted against the pre-incubation time to determine time-dependent inhibition.
The control enzyme without inhibitor was also run concurrently. For validation, the MAO- B standards were run simultaneously for the time-dependent assay.

human recombinant MAO-B [3] = molecular target: T3, human recombinant MAO-B; assay: kynuramine oxidation deamination assay, MAO-B inhibition (IC50); assay type: biochemical; parameters: purchased BD Biosciences (Bedford, MA, USA); settings: for Selectivity Index MAO-A/B: ratio of IC50 MAO-A / MAO-B; for IC50: recombinant human MAO-B, kynuramine 50 μM, mean ± S.D. of triplicate
Procedure: as §1, with “The kynuramine concentrations for MAO-A and -B were 80 μM and 50 μM, respectively.” left out

human recombinant MAO-B [4] = molecular target: T3, human recombinant MAO-B; assay: reversibility of binding by equilibrium dialysis of the enzyme–inhibitor complex; settings: for MAO-B enzyme activity recovered after dialysis: 1.5 µM inhibitor, dialyzed overnight at 4 °C, 25 mM buffer pH 7.4; for reversibility of binding/inhibition of MAO-B: equilibrium dialysis
Procedure: Recovery of the catalytic activity of the enzyme was determined by assay of the enzyme activity before and after equilibrium-dialysis. […] After 20 min of incubation at 37 °C, the reaction was stopped by chilling the tubes in the ice bath. All the samples were dialyzed against potassium phosphate buffer (25 mM; pH 7.4) at 4 °C for 14–18 h (with three buffer changes). The control enzyme (without inhibitor) was also run simultaneously using the same procedure and the activity of the enzyme was determined before and after the dialysis.
MAO-B enzyme was incubated with the highest concentration of the analogs for 20 min at 37 °C to allow for binding of the inhibitor with the enzyme and formation of the enzyme–inhibitor complex. Then, the mixtures of the enzyme–inhibitor complex were dialyzed overnight at 4 °C using 25 mM KHPO4 (pH 7.4) buffer. The enzyme activities were examined before and after dialysis.

MAO-A = system: MAO-A; parameters: method as in PMID 32869630; settings: chemiluminescent assay, MAO-Glo kit; cited from earlier work
MAO-B = system: MAO-B; parameters: method as in PMID 32869630; settings: chemiluminescent assay, MAO-Glo kit; cited from earlier work
[5] = system: MAO-A (rat liver mitochondrial fraction); parameters: method as in PMID 18372132; settings: chromogenic solution; cited from earlier work
[6] = system: MAO-B (rat liver mitochondrial fraction); parameters: method as in PMID 18372132; settings: cited from earlier work

Row | Compound | IC50 (human recombinant MAO-A) | IC50 (human recombinant MAO A; human recombinant, kynuramine) | IC50 (human recombinant MAO B; human recombinant, kynuramine) | Monoamine Oxidase B Type of Inhibition (human recombinant MAO-B [1]) | selectivity towards MAO-B compared with MAO-A (human recombinant MAO-B [3]) | Selectivity Index MAO-A/B (human recombinant MAO-B [3]) | IC50 (human recombinant MAO-B [3]) | Ki (human recombinant MAO-B [1]) | reversibility of binding/inhibition of MAO-B (human recombinant MAO-B [4]) | Selectivity Index MAO-A/B (human recombinant MAO B) | also measured
1 | COc1ccc(-c2cc(=O)c3c(O)cc(O)cc3o2)cc1 [Acacetin] | 0.105 ± 0.0014 µM | 0.121 ± 0.001 µM | 49 ± 0.7 nM | competitive/reversible | – | – | – | – | – | – | Monoamine Oxidase A Type of Inhibition (Monoamine Oxidase A): competitive/reversible; Ki (Monoamine Oxidase A; mean ± S.D. of triplicate experiments): 30 ± 1.8 nM
2 | CCCOc1ccc(-c2cc(=O)c3c(O)cc(OC)cc3o2)cc1 [Compound 1c, 5-Hydroxy-7-methoxy-2-(4-propoxyphenyl)-4H-chromen-4-one] | 48.8 ± 2.01 µM | – | – | mixed/partially reversible | 1478 fold | 1478.2 | 33 ± 4.2 nM | 43 ± 3.8 nM | partially reversible; also recorded: reversible inhibition | – | inhibition at 0.1 µM (human recombinant MAO-B [2]): 70 to 80%; MAO-B enzyme activity recovered after dialysis (human recombinant MAO-B [4]): 30%; reversibility of binding/inhibition of MAO-B (human recombinant MAO-B [4]; listed as O-propyl): reversible MAO-B inhibitors
3 | COc1cc(O)c2c(=O)cc(-c3ccc(OC(C)C)cc3)oc2c1 [Compound 2c, 5-Hydroxy-2-(4-isopropoxyphenyl)-7-methoxy-4H-chromen-4-one] | 30.74 ± 0.023 µM | – | – | mixed/reversible | 1921 fold | 1921.3 | 16 ± 7 nM | 52 ± 3.1 nM | reversible inhibition | – | inhibition at 0.3 µM (human recombinant MAO-B [2]): 30 to 50%; MAO-B enzyme activity recovered after dialysis (human recombinant MAO-B [4]): 66%; reversibility of binding/inhibition of MAO-B (human recombinant MAO-B [4]; listed as O-isopropyl): reversible MAO-B inhibitors
4 | COc1cc(O)c2c(=O)cc(-c3ccc(OCC(C)C)cc3)oc2c1 [Compound 3c, 5-Hydroxy-2-(4-Isobutoxyphenyl)7-methoxy-4H-chromen-4-one] | > 100 µM | – | – | mixed/irreversible | > 3000 fold | >3225.8 | 31 ± 7 nM | 37 ± 9.5 nM | irreversible MAO-B inhibitors | – | inhibition at 0.3 µM (human recombinant MAO-B [2]): 70 to 80%; selectivity towards MAO-B compared with MAO-A (human recombinant MAO-B [3]; listed as O-isobutyl): > 3225 fold
5 | C#CCOc1ccc(-c2cc(=O)c3c(O)cc(OC)cc3o2)cc1 [Compound 4c, 5-Hydroxy-7-methoxy-2-(4-(prop-2-yn-1-yloxy)phenyl)-4H-chromen-4-one] | 62.7 ± 5.21 µM | – | – | mixed/irreversible | 1279 fold | 1279.6 | 49 ± 1.4 nM | 68 ± 7.1 nM | irreversible MAO-B inhibitors | – | inhibition at 0.4 µM (human recombinant MAO-B [2]): 70 to 80%
6 | COc1cc(O)c2c(=O)cc(-c3ccc(O)cc3)oc2c1 [Genkwanin] | – | 0.14 ± 0.01 µM | 350 ± 30 nM | – | – | – | – | – | – | 0.40 | –
7 | COc1cc(-c2oc3cc(O)cc(O)c3c(=O)c2O)ccc1O [Isorhamnetin] | – | 6.42 ± 7.69 µM | 21200 ± 4990 nM | – | – | – | – | – | – | 0.30 | –
8 | O=c1cc(-c2ccc(O)c(O)c2)oc2cc(O)cc(O)c12 [Luteolin] | – | – | – | – | – | – | – | – | – | – | IC50 (MAO-A): 8.57 ± 0.47 µM; IC50 (MAO-B): > 100 µM
9 | O=C1C[C@@H](c2ccc(O)cc2)Oc2cc(O)cc(O)c21 [Naringenin] | – | – | – | – | – | – | – | – | – | – | IC50 [5]: 955 ± 129 µM; IC50 ([6]; chromogenic solution): 288 ± 18 µM; Selectivity Index MAO-A/B [6]: 3.32
10 | O=c1c(O)c(-c2ccc(O)c(O)c2)oc2cc(O)cc(O)c12 [Quercetin] | – | – | 28400 ± 5410 nM | – | – | – | – | – | – | 0.05 | IC50 (human recombinant MAO A): 1.52 ± 0.09 µM
12 | COc1cc(O)c2c(=O)cc(-c3ccc(O)c(OC)c3)oc2c1 [Vetulin] | – | 18.8 ± 0.29 µM | 440 ± 10 nM | – | – | – | – | – | – | 42.70 | –
